Consider 1 compound from PMC2811193, “Complementary Roles in Cancer Prevention: Protease Inhibitor Makes the Cancer Preventive Peptide Lunasin Bioavailable” (PLoS ONE, 2010).

The nature of series [1]: Lunasin in blood and liver of rats fed LES diet for 4 weeks. The series is classed as in vivo. The settings on record: female, Sprague-Dawley, rat, po, 0.25 % of the diet, rats fed dietary LES for 4 weeks. From the text: Sprague-Dawley Rats (Female, 5-weeks old) were purchased from Central Laboratory Animal Inc. (Korea), and experiments were done according with guidelines of the Animal Center at Andong National University (Andong, Korea). Five rats were fed ad libitum with LES and potato starch (0.25% of the diet) for 4 weeks, and then sacrificed. Livers and serum were collected and freeze-dried immediately. One gram of the freeze-dried tissues was extracted with 0.1 M PBS (pH 7.0) (buffer∶tissue ratio (v/w) = 1∶3) at 4°C for 24 hrs, and then centrifuged at 15000 rpm for 1 h. The supernatant protein was further purified by ion exchange chromatography on Biogel resin AG 1-X4 (BioRad), as described by Jeong et al.. Lunasin was further purified by injecting 20 µl of filtrate into the HPLC system equipped with a C18 column (Proteo 90A, Phenomenex Co., Torrance, CA, USA) equilibrated at ambient temperature and an UV detector (295 nm) stabilized with the mobile phase (acetonitrile∶water = 4∶6), at a flow rate of 2.5 ml/min for 15 min. Lunasin was identified by comparison with the retention time of standard synthetic lunasin peak. The lunasin fraction was collected, freeze dried and analyzed by SDS-PAGE and Western-Blot as described above.
Supplementary file pone.0008890.s002.tif: Figure S2 Lunasin was extracted from blood and liver of rats fed control and lunasin-enriched soy (LES) diets for four weeks. […]

Series [2] deals with MDA-MB-231 tumor xenografts. As to the kind of experiment: Breast cancer prevention in MDA-MB-231 xenograft mouse model. Type of series: in vivo, athymic NCr-nu/nu mice. The settings on record: for tumor incidence (mice showing tumors) / tumor incidence lower compared with the BBI group / tumor incidence lower compared with the control: seven weeks post-cells injection. On the procedure:
Human MDA-MB-231 breast cancer cells were obtained from ATCC and grown in Leibovitz's L-15 Medium supplemented with 10% FBS, 100 unit/ml penicillin, and 100 µg/ml streptomycin (Invitrogen), in a humidified atmosphere at 37°C.
Mice protocol was approved by ACUC (University of California, Berkeley, CA, USA). Thirty-two six weeks-old athymic NCr-nu/nu mice (National Cancer Institute, Frederick, MD, USA) were acclimatized for 1 week and randomly divided into four groups (n = 8): control group (receiving PBS), BBI-group (receiving BBI at 20 mg/kg body weight), and two lunasin-groups (receiving synthetic lunasin [Chengdu KaiJie Bio-Pharmaceutical Co., Chengdu, P.R. China] at 20 mg/kg body weight and 4 mg/kg body weight). After two months of i.p. treatment three times a week, mice were injected subcutaneously in the right flank with 1×10^7 MDA-MB-231 cells suspended in 0.1 ml of Matrigel Basement Membrane Matrix (Becton Dickinson, Bedford, MA, USA). Tumor growth was monitored by palpation, and the onset when tumors were detectable was noted. Tumor size was measured with calipers, and tumor volume was calculated assuming the shape as ellipsoid. Tumor incidence in percentage was calculated as the number of tumor-bearing mice divided by the total number of mice in each group, whereas tumor generation was calculated as the total number of tumors divided by total number of mice in each group. The volume of the tumor was determined using the following formula: tumor volume = length × width^2 ×0.523 [41].
At the end of the experiment, animals were sacrificed, and tumors were dissected and weighed. Individual tumors were split for fixation in the Shando Glyo-Fixx™ (Thermo Scientific, Pittsburgh, PA, USA) for histological examination. The paraffin-embedded sections were stained with hematoxylin and eosin (H&E).

[3] abbreviates: 4 mg/kg body weight i.p., n = 8.

Take `CC[C@H](C)[C@H](NC(=O)[C@H](CCCCN)NC(=O)[C@H](CCC(=O)O)NC(=O)[C@H](CCSC)NC(=O)[C@@H](NC(=O)[C@H](Cc1c[nH]cn1)NC(=O)[C@H](CCCCN)NC(=O)[C@H](CCC(=O)O)NC(=O)[C@H](CS)NC(=O)[C@@H]1CCCN1C(=O)[C@@H](NC(=O)[C@H](CC(C)C)NC(=O)[C@H](CC(N)=O)NC(=O)[C@@H](NC(=O)CNC(=O)[C@H](CCC(N)=O)NC(=O)[C@H](CC(C)C)NC(=O)[C@H](CCC(N)=O)NC(=O)[C@H](CCCCN)NC(=O)[C@H](CCCNC(=N)N)NC(=O)[C@H](CS)NC(=O)[C@H](CO)NC(=O)[C@H](CC(=O)O)NC(=O)[C@H](CCC(N)=O)NC(=O)[C@H](CCC(N)=O)NC(=O)[C@H](Cc1c[nH]cn1)NC(=O)[C@H](CCC(N)=O)NC(=O)[C@H](Cc1c[nH]c2ccccc12)NC(=O)[C@H](CCCCN)NC(=O)[C@@H](N)CO)C(C)C)[C@@H](C)O)[C@@H](C)CC)C(=O)N[C@@H](CCC(N)=O)C(=O)NCC(=O)N[C@@H](CCCNC(=N)N)C(=O)NCC(=O)N[C@@H](CC(=O)O)C(=O)N[C@@H](CC(=O)O)C(=O)N[C@@H](CC(=O)O)C(=O)N[C@@H](CC(=O)O)C(=O)N[C@@H](CC(=O)O)C(=O)N[C@@H](CC(=O)O)C(=O)N[C@@H](CC(=O)O)C(=O)N[C@@H](CC(=O)O)C(=O)N[C@@H](CC(=O)O)C(=O)O` [lunasin]: in series [1] (blood, present as a monomer, Western-blot after anion exchange-HPLC purification, read-out: lunasin concentration in blood), the level at 672 h was found to be 17.5 ng/mL. Also, the tissue level at time at 672 h in series [1] (liver, exists as a dimer, Western-blot, read-out: lunasin concentration in liver) was 3100 ng/g. Further, the “tumor incidence (mice showing tumors)” value came out at 50% in series [2] (4 mg/kg body weight i.p. three times a week, n = 8) and 38% in series [2] (20 mg/kg body weight i.p. three times a week, n = 8). The “decrease of the sizes of tumors (tumor volume) versus control mice” value in series [2] (setting [3]) came to 34%; in series [2] (20 mg/kg body weight i.p., n = 8), 23%. Further, in series [2] (setting [3]), the “tumor generation lower relative to BBI group” value is 69%. The “tumor incidence lower compared with the BBI group” value in series [2] (4 mg/kg body weight i.p.) is recorded as 43%; in series [2] (20 mg/kg body weight i.p.), 57%. The “tumor incidence lower compared with the control” value was determined as 33% in series [2] (4 mg/kg body weight i.p.) and 49% in series [2] (20 mg/kg body weight i.p.). Besides, in series [2] (4 mg/kg body weight i.p., total number of tumors / total number of mice, P = 0.029 vs control, n = 8), the “tumor generation lower relative to control” value is on record as 70%. The tumor generation entry in series [2] (20 mg/kg body weight i.p., versus vehicle-treated group) is “reduced”. In series [2] (both doses of lunasin (20, 4 mg/kg) compared to control-group (P = 0.2134, 0.1880) and BBI-group (P = 0.0909, 0.0569)), the “weight of tumors at the end of the experiment” value is “lower”. For the same compound, the body weight result in series [2] (i.p. three times a week, BBI 20 mg/kg, lunasin 20 and 4 mg/kg body weight, compared among the four groups, n = 8) is recorded as “No significant differences”. Moreover, in series [2] (lunasin 20 and 4 mg/kg i.p.), the appearance of tumors entry is on record as “delay in the appearance of tumors”.
